The values that follow are results of earlier work, collected in patent publication US20180235992A1, “IMMUNOTHERAPIES FOR MALIGNANT, NEURODEGENERATIVE AND DEMYELINATING DISEASES BY THE USE OF TARGETED NANOCARRIERS” (RODOS BIOTARGET GMBH, priority 2015, published 2018).

One data set relates to pancreatic cancer. Particulars: given intravenously, equal dose.
The next data set deals with human melanoma cells. The following applies: Fas Receptor/Caspase-8 pathway independent of p53.
The subject of data set [1] is human vascular endothelial cells. Particulars: in vitro.
In data set [2] the test system is Fibroblast Growth Factor-2-induced angiogenic response. Particulars: in-vivo.
The test system of data set [3] is human acute myelogenous leukemia cell line HL-60.
The subject of data set [4] is multiple myeloma cell lines.
Another data set has as its system pancreatic cancer model. The following applies: in vivo.
The next data set concerns pancreatic cancer cells. The following applies: modulating miR-200 and miR-21 expression.
The subject of another data set is human pancreatic cancer. Particulars: mouse, in vivo.
The subject of data set [5] is squamous cell carcinoma head and neck cell lines.
Data set [6] has as its system Alzheimer's β-amyloid fibrils. The following applies: in vitro.

`COc1cc(/C=C/C(=O)CC(=O)/C=C/c2ccc(O)c(OC)c2)ccc1O` [curcumin]: in the data set on pancreatic cancer, the “tumor weights and volumes” value is “failed to cause a significant reduction”. In addition, the proliferation and apoptosis entry in the data set with mantle cell lymphoma is “suppress proliferation, and induce apoptosis”. Moreover, the apoptosis entry (with human melanoma cells; in data set [3]; in data set [5]) was “induces apoptosis” in each case. In addition, the proliferation result in data set [1] is on record as “suppresses the proliferation”. The angiogenic response result in [2] is on record as “inhibits”. In addition, the “expression of NF-κB, Bcl-2 and Bcl-XL” value in [4] is listed as “suppresses expression”. For the same molecule, in the data set with pancreatic cancer model, the “antitumor activity of gemcitabine” value is on record as “potentiates the antitumor activity of gemcitabine”. In the data set with pancreatic cancer cells, the gemcitabine sensitivity entry is listed as “induces gemcitabine sensitivity”. Besides, the “tumor growth and angiogenesis” value in the data set on human pancreatic cancer is “inhibits tumor growth and angiogenesis”. Also, the anti-amyloidogenic effects result in [6] was “potent anti-amyloidogenic effects”.
In the case of [DLys(6)]-LHRH-curcumin, the “tumor weights and volumes” value in the data set on pancreatic cancer was “caused a reduction in tumor weights and volumes”.
